Values after ≈ are worked out from the molar mass of the structure shown.
System: MCF7
Assay: Cytotoxicity against Homo sapiens (human) MCF7 cells after 48 hr by SRB assay
Format: functional, cell-based
Settings: MCF7, 48 h

**Q.** With O=C(NS(=O)(=O)c1ccc(Cl)cc1)N1C(=O)c2ccccc2S1(=O)=O as the compound, how does the IC50 read?
**A.** 6.03 µg/mL (≈ 15 µM)

**Q.** For Cc1ccc(S(=O)(=O)NC(=O)N2C(=O)c3ccccc3S2(=O)=O)cc1, which IC50 is on record?
**A.** 5.65 µg/mL (≈ 14.9 µM)

**Q.** c1ccc2c(Nc3ccc(Nc4ncnc5ccccc45)cc3)ncnc2c1 was tested. Which IC50 did it give?
**A.** 0.06 µg/mL (≈ 0.165 µM)

**Q.** How did the IC50 turn out when NS(=O)(=O)c1ccc(NNc2ncnc3ccccc23)cc1 was run?
**A.** 1.13 µg/mL (≈ 3.58 µM)

**Q.** How did the IC50 turn out when NS(=O)(=O)c1ccc(Nc2ncnc3ccccc23)cc1 was run?
**A.** 2.4 µg/mL (≈ 7.99 µM)

**Q.** How did the IC50 turn out when O=S1(=O)N=C(Nc2cccc(NC3=NS(=O)(=O)c4ccccc43)c2)c2ccccc21 was run?
**A.** 3.14 µg/mL (≈ 7.16 µM)

**Q.** With O=S1(=O)N=C(Nc2nnc(-c3ccc(Cl)cc3)s2)c2ccccc21 as the compound, how does the IC50 read?
**A.** 2.92 µg/mL (≈ 7.75 µM)

**Q.** With c1cc(Nc2ncnc3ccccc23)cc(Nc2ncnc3ccccc23)c1 as the compound, how does the IC50 read?
**A.** 2.04 µg/mL (≈ 5.6 µM)

**Q.** For O=S1(=O)N=C(Nc2nnc(-c3ccccc3)s2)c2ccccc21, which IC50 is on record?
**A.** 2.92 µg/mL (≈ 8.53 µM)

**Q.** Which IC50 does the source give for N=C(N)NS(=O)(=O)c1ccc(NC2=NS(=O)(=O)c3ccccc32)cc1 here?
**A.** 4.3 µg/mL (≈ 11.3 µM)

**Q.** With N=C(N)NS(=O)(=O)c1ccc(Nc2ncnc3ccccc23)cc1 as the compound, how does the IC50 read?
**A.** 1.85 µg/mL (≈ 5.4 µM)

**Q.** For N=C(N)NS(=O)(=O)c1ccc(NNC2=NS(=O)(=O)c3ccccc32)cc1, which IC50 is on record?
**A.** 4.35 µg/mL (≈ 11 µM)

**Q.** With c1ccc(-c2nnc(Nc3ncnc4ccccc34)s2)cc1 as the compound, how does the IC50 read?
**A.** 3.61 µg/mL (≈ 11.8 µM)

**Q.** c1ccc2c(NCCNc3ncnc4ccccc34)ncnc2c1 was tested. Which IC50 did it give?
**A.** 2.04 µg/mL (≈ 6.45 µM)

**Q.** How did the IC50 turn out when Clc1ccc(-c2nnc(Nc3ncnc4ccccc34)s2)cc1 was run?
**A.** 2.04 µg/mL (≈ 6 µM)

**Q.** Cc1ccc(S(=O)(=O)NC(=O)n2cnc3ccccc3c2=O)cc1 was tested. Which IC50 did it give?
**A.** 3.96 µg/mL (≈ 11.5 µM)

**Q.** For O=S1(=O)N=C(Nc2ccc(NC3=NS(=O)(=O)c4ccccc43)cc2)c2ccccc21, which IC50 is on record?
**A.** 2.76 µg/mL (≈ 6.29 µM)

**Q.** How did the IC50 turn out when NS(=O)(=O)c1ccc(NNC2=NS(=O)(=O)c3ccccc32)cc1 was run?
**A.** 3.73 µg/mL (≈ 10.6 µM)

**Q.** N=C(N)NS(=O)(=O)c1ccc(NNc2ncnc3ccccc23)cc1 was tested. Which IC50 did it give?
**A.** 1.65 µg/mL (≈ 4.62 µM)

**Q.** For O=C(NS(=O)(=O)c1ccc(Cl)cc1)n1cnc2ccccc2c1=O, which IC50 is on record?
**A.** 3.74 µg/mL (≈ 10.3 µM)

**Q.** Which IC50 does the source give for NS(=O)(=O)c1ccc(NC2=NS(=O)(=O)c3ccccc32)cc1 here?
**A.** 4.17 µg/mL (≈ 12.4 µM)

**Q.** Which IC50 does the source give for O=S1(=O)N=C(NCCNC2=NS(=O)(=O)c3ccccc32)c2ccccc21 here?
**A.** 3.69 µg/mL (≈ 9.45 µM)

Reference: ChEMBL document CHEMBL3045780, “EGFR tyrosine kinase targeted compounds: synthesis, docking study, and in vitro antitumor activity of some new quinazoline and benzo[d]isothiazole derivatives” (Med Chem Res, 2011)
